Among the data in PubChem BioAssay (NCI) are GI50 and TGI values, retold here.

A word on the GI50: it is the concentration at which growth is held to half of that of the control. One may read the TGI as the concentration at which net growth stops. Lower therefore signals more potent growth arrest.

Experiment in all cases: DTP human tumour cell line panel, 48 h
In test [1] the test system is UO-31 renal.
Test [2] concerns OVCAR-4 ovarian.
For test [3], the system named is A498 renal.
Test [4] relates to SNB-19 CNS.
In test [5] the test system is HCT-15 colon.
Test [6] relates to SK-MEL-2 melanoma.
Test [7] relates to TK-10 renal.
The subject of test [8] is RXF 393 renal.
For test [9], the system named is CAKI-1 renal.
For test [10], the system named is CCRF-CEM leukemia.

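How tested: cells in 96-well plates exposed to compound for 48 hours at five concentrations. At the GI50, growth is halved. At the TGI there is no net growth.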

Take `COc1ccc(/C=C/C(=O)c2ccc(Nc3nc(Nc4ccc(F)cc4)nc(Nc4ccc(F)cc4)n3)cc2)cc1`: the GI50 in test [1] is 10.2 µM; in test [2], 27.4 µM; in [3], 11.8 µM; in [4], 30.9 µM; in [5] it was 14.4 µM; in [6], 14100 nM. The GI50 is 11.8 µM in [7], 3090 nM in test [8], 38.3 µM in [9] and 5.15 µM in test [10]. In addition, the total growth inhibition concentration (TGI) is 31.9 µM in test [1]; above 100 µM in test [2]; 28.2 µM in test [3]; above 100 µM in test [4]; above 100 µM in [5]; 34.6 µM in [6]. The TGI in [7] was 42.7 µM; in [8] it was 14.2 µM; in [9], above 100 µM; in test [10], 48.2 µM.

On to `NC1=Nc2ccccc2Sc2ccccc21`, for which the concentration for total growth inhibition (TGI) in test [1], in test [2], in [3], in [4], in test [5] and in [6] was above 100 µM in each case. Further, the TGI in test [7], in test [8], in test [9] and in [10] was above 100 µM in each case.

Turning to `O=C(N/C(=C\c1ccc(F)cc1)c1nc2ccccc2[nH]1)c1ccccc1`, the TGI in test [1], in [2], in test [3], in test [4], in test [5] and in test [6] was above 100 µM throughout. For the same compound, the TGI in [7], in test [8], in test [9] and in [10] was above 100 µM throughout.

Regarding `CCSc1nc(N)c2cnn(CC)c2n1`, the GI50 was 7.24 µM in test [1]; 49 µM in test [2]; 3.7 µM in test [3]; 30.2 µM in test [4]; 6.21 µM in [5]; 2120 nM in test [6]. Moreover, the GI50 in test [7] was 4.56 µM; in test [8], 2980 nM; in [9] it was 4.63 µM; in test [10], 3.58 µM. Further, the concentration for total growth inhibition (TGI) was above 100 µM in test [1]; above 100 µM in test [2]; 22.8 µM in [3]; above 100 µM in [4]; 25.3 µM in test [5]; 5.88 µM in test [6]. Moreover, the total growth inhibition concentration (TGI) amounted to 36.1 µM in test [7], 7.14 µM in test [8], 56.3 µM in test [9] and 10.8 µM in test [10].

Take `CC1=C(SCCC(=O)OC(C[Se]C2=C(C)C(=O)c3ccccc3C2=O)C(=O)NC(C)(C)C)C(=O)c2ccccc2C1=O` (stereo not drawn): the GI50 in test [1] was 0.68 µM; in test [2], 1.45 µM; in [3], 1.55 µM; in [4], 0.867 µM; in [5], 1.47 µM; in test [6] it was 2040 nM. Besides, the GI50 in test [7] is 2.52 µM; in [8] it was 1730 nM; in test [9] it was 1.65 µM; in test [10], 0.306 µM. Also, the TGI in test [1] came to 2.15 µM; in test [2], 2.76 µM; in test [3], 2.97 µM; in test [4], 2.08 µM; in test [5], 3.11 µM; in [6] it was 3.65 µM. The TGI in test [7] stood at 4.1 µM; in [8] it was 3.33 µM; in test [9], 3.36 µM; in [10], 1.2 µM.

Regarding `CN(C)Cc1cc(C(C)(C)C)cc(CN(C)C)c1O`, the TGI in test [1] was 51.6 µM; in test [2] it was above 100 µM; in test [3], above 100 µM; in test [4] it was above 100 µM; in [5], above 100 µM; in test [6], above 100 µM. Also, the TGI in test [7], in test [8], in test [9] and in test [10] was above 100 µM each time.

Take `Cc1nc2sc(C(=O)Nc3ccccc3)c(N)c2cc1C(=O)c1ccccc1`: the GI50 in [1] is 3.58 µM; in [2] it was 34.7 µM; in [3], 0.216 µM; in [4], 2 µM; in test [5], 2.19 µM; in test [6], 2830 nM. Besides, the GI50 in test [7] is 3.09 µM; in test [8], 1830 nM; in test [9], 3.29 µM; in test [10], 1.69 µM. Also, the TGI is above 50 µM in test [1]; above 50 µM in test [2]; 3.72 µM in [3]; above 50 µM in test [4]; above 50 µM in test [5]; above 50 µM in test [6]. The TGI in [7] is above 50 µM; in test [8] it was 34.3 µM; in test [9], above 50 µM; in test [10], above 50 µM.

As for `CCOc1ccccc1N=Cc1c2ccccc2cc2ccccc12`, the TGI in test [1] is 43.6 µM; in [2], above 74 µM; in test [3], above 72.4 µM; in test [4], above 88.4 µM; in test [5], above 83.5 µM; in test [6] it was 53.4 µM. In addition, the concentration for total growth inhibition (TGI) was 67.2 µM in test [7], 37.4 µM in [8], above 92.4 µM in test [9] and above 58.1 µM in [10].

`CC1(C2CCC3(C)C(C2)C3Sc2ccccc2)OCCO1` (stereo not drawn): the total growth inhibition concentration (TGI) in test [1] is 31.4 µM; in test [2], 81.7 µM; in [3], 36.4 µM; in test [4], 82.6 µM; in test [5], above 100 µM; in [6], 34.3 µM. In addition, the TGI in test [7] was above 100 µM; in [8] it was 32.4 µM; in [9], 51.4 µM; in test [10], 40.3 µM.

`CCOc1ccccc1NC(=O)C1=C(C)NC(C)=C(C(=O)Nc2ccccc2OCC)C1c1cccc([N+](=O)[O-])c1`: the TGI in test [1], in [2], in test [3], in [4], in [6] and in [7] was above 100 µM throughout. In addition, the total growth inhibition concentration (TGI) in test [8], in [9] and in [10] was above 100 µM each time.

Take `N=C1C=C(N)C(=O)c2ccccc21`: the GI50 in test [1] is 0.153 µM; in test [2] it was 0.103 µM; in test [3], 1.57 µM; in test [4], 0.598 µM; in [5], 0.225 µM; in test [6], 189 nM. The GI50 in [7] is 0.599 µM; in [8] it was 182 nM; in test [9], 0.187 µM; in [10] it was 0.308 µM. The TGI was determined as 0.32 µM in test [1]; 0.243 µM in test [2]; 2.95 µM in test [3]; 1.97 µM in [4]; 0.578 µM in test [5]; 0.373 µM in test [6]. Moreover, the TGI was 1.7 µM in [7], 0.337 µM in [8], 0.379 µM in [9] and above 100 µM in test [10].

Consider `N#CC(C#N)C(c1ccccc1)c1ccccc1`, for which the total growth inhibition concentration (TGI) in [1], in [2], in test [3], in test [4], in [5] and in test [6] was above 100 µM each time. Also, the concentration for total growth inhibition (TGI) in test [7], in test [8], in test [9] and in test [10] was above 100 µM each time.

Consider `N#Cc1cc2c(cc1Cl)SC(=Nc1ccccc1)N(S(=O)(=O)c1ccc(Br)s1)S2(=O)=O`, for which the GI50 in [1] is 15.1 µM; in [2] it was 20.9 µM; in [3], 21.9 µM; in [5], 17.9 µM; in [6], 15000 nM; in test [7] it was 19.7 µM. The figures for the GI50 in test [8], in [9] and in test [10] were 15100 nM, 17.5 µM and 21.8 µM, respectively. Further, the total growth inhibition concentration (TGI) in [1] worked out at 36.4 µM; in test [2], 44 µM; in [3], 38 µM; in test [5], 38.8 µM; in test [6] it was 37.8 µM; in [7], 35.6 µM. Besides, the results for the TGI in test [8], in test [9] and in test [10] were 45.1 µM, 33.8 µM and 45 µM, respectively.

Consider `CN1C/C(=C\c2ccc(C(=O)O)cc2)C(=O)/C(=C/c2ccc(C(=O)O)cc2)C1`, for which the TGI in test [1], in test [2], in test [3], in test [5], in [6] and in test [7] was above 100 µM in each case. The concentration for total growth inhibition (TGI) in [8], in [9] and in [10] was above 100 µM in each case.

Take `Cc1nc(-n2nc(-c3ccccc3)cc2-c2ccccc2)sc1C(=O)/C=C/c1cccc([N+](=O)[O-])c1`: the TGI in test [1] is 23.7 µM; in [3], 51.9 µM; in [4], 23.5 µM; in [5], above 100 µM; in test [6], 34.2 µM; in test [7], 92.3 µM. For the same compound, the TGI turned out to be 29.8 µM in test [8], 49.6 µM in [9] and 44.4 µM in test [10].

For `CC(C)OP(=O)(OC(C)C)/C(C#N)=C/c1c[nH]c2ccccc12`, the total growth inhibition concentration (TGI) in test [2], in test [3], in [4], in [5], in test [6] and in test [7] was above 100 µM each time. The total growth inhibition concentration (TGI) in test [8], in test [9] and in [10] was above 100 µM throughout.

On to `O=C1/C(=C/c2ccc(O)cc2)Oc2ccccc21`, for which the concentration for total growth inhibition (TGI) in test [2], in [3], in test [4], in [5], in [6] and in [7] was above 100 µM each time. Also, the total growth inhibition concentration (TGI) in [8], in [9] and in test [10] was above 100 µM throughout.

Regarding `O=C(CCc1cc(-c2ccc(F)cc2)n[nH]1)N(Cc1ccccc1)Cc1ccccc1`, the total growth inhibition concentration (TGI) in test [1], in test [3], in test [4], in test [5], in test [6] and in test [7] was above 100 µM each time. Also, the concentration for total growth inhibition (TGI) in test [8], in test [9] and in [10] was above 100 µM each time.

`COc1ccc2c(c1)C=CC1C2CC[C@]2(C)C(NC(=O)/C=C/c3ccc(O)c(O)c3)CCC12` (stereo partly drawn): the GI50 was 10.2 µM in test [1]; 19.9 µM in test [3]; 5.41 µM in test [4]; 3.05 µM in [5]; 25700 nM in [6]; 2.82 µM in test [7]. For the same compound, the GI50 in test [8] is 17600 nM; in test [9], 7.1 µM; in test [10], 4.36 µM. Further, the total growth inhibition concentration (TGI) came out at 27.3 µM in test [1]; 53.6 µM in test [3]; 19.6 µM in [4]; 13.3 µM in [5]; 62.1 µM in [6]; 10.3 µM in [7]. Moreover, the TGI turned out to be 45.8 µM in [8], 24.7 µM in test [9] and 19.5 µM in test [10].

For the compound `COC(=O)C(/C(=N\O)C(=O)Nc1ccc(Br)cc1)c1nc2ccccc2[nH]c1=O` (stereo not drawn), the TGI in test [1] is above 100 µM; in test [2] it was above 100 µM; in [3], above 100 µM; in [4], above 100 µM; in test [5], above 100 µM; in [6], 49.2 µM. The figures for the TGI in test [8], in test [9] and in [10] were 89.2 µM, above 100 µM and 72.9 µM, respectively.

On to `C[C@H]1CCC2C(OC(=O)[C@@H]2CN(C)C)[C@]2(C)C(=O)C=CC12O` (stereo partly drawn), for which the TGI in test [1] was 30.8 µM; in [2] it was 33.4 µM; in [3], 31.2 µM; in [4], above 57.5 µM; in [6], above 54.4 µM; in [7], 18.4 µM. Also, the results for the TGI in test [8], in test [9] and in test [10] were 4.72 µM, 24.2 µM and 9.22 µM, respectively.
